According to patent publication US20090298866A1, “Indole Compounds” (priority 2006, published 2009):
pIC50: −log10 of the molar value. Where a name gives a salt, the structure may show the parent alone.

Legend:
human EP1 receptor [1] = target: T1, human EP1 receptor (Homo sapiens, UniProt P34995); assay: Binding assay for the human prostanoid EP1 receptor (competition with [3H]-PGE2); conditions: binding to human EP1 receptor, CHO-K1 membranes, [3H]-PGE2 3 nM; averages of a number of experiments
T1 construct: expressed in transfected cells; host or cells: CHO-K1
T1 sequence (P34995 1-402): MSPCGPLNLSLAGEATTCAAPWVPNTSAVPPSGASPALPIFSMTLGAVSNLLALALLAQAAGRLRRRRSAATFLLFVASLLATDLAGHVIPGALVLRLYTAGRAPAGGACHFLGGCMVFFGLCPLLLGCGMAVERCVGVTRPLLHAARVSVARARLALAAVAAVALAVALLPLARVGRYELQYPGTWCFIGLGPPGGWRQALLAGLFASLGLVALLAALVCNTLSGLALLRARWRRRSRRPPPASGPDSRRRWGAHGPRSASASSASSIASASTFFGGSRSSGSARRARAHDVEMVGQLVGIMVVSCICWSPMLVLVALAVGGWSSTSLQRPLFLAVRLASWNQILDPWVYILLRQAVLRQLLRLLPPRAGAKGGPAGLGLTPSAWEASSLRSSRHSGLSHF
Protocol: Competition assay using [^3H]-PGE2.
Compound potencies are determined using a radioligand binding assay. In this assay compound potencies are determined from their ability to compete with tritiated prostaglandin E2 ([^3H]-PGE2) for binding to the human EP1 receptor. This assay utilises Chinese hamster ovary-K1 (CHO-K1) cells into which a stable vector containing the EP1 cDNA has previously been transfected. Cells are cultured in suitable flasks containing culture medium such as DMEM:F-12 supplemented with 10% v/v foetal calf serum, 2 mM L-glutamine, 0.25 mg/ml geneticin, 10 μg/ml puromycin and 10 μM indomethacin.
Cells are detached from the culture flasks by incubation in calcium and magnesium free phosphate buffered saline containing 1 mM disodium ethylenediaminetetraacetic acid (Na2EDTA) and 10 μM indomethacin for 5 min. The cells are isolated by centrifugation at 250×g for 5 mins and suspended in an ice cold buffer such as 50 mM Tris, 1 mM Na2EDTA, 140 mM NaCl, 10 μM indomethacin (pH 7.4). The cells are homogenised using a Polytron tissue disrupter (2×10 s burst at full setting), centrifuged at 48,000×g for 20 mins and the pellet containing the membrane fraction is washed (optional) three times by suspension and centrifugation at 48,000×g for 20 mins. The final membrane pellet is suspended in an assay buffer such as 10 mM 2-[N-morpholino]ethanesulphonic acid, 1 mM Na2EDTA, 10 mM MgCl2 (pH 6). Aliquots are frozen at −80° C. until required.
For the binding assay the cell membranes, competing compounds and [^3H]-PGE2 (3 nM final assay concentration) are incubated in a final volume of 100 μl for 30 min at 30° C. All reagents are prepared in assay buffer. Reactions are terminated by rapid vacuum filtration over GF/B filters using a Brandell cell harvester. The filters are washed with ice cold assay buffer, dried and the radioactivity retained on the filters is measured by liquid scintillation counting in Packard TopCount scintillation counter.
The data are analysed using non linear curve fitting techniques to determine the concentration of compound producing 50% inhibition of specific binding (IC50).

human EP1 receptor [2] = target: T1, human EP1 receptor; assay: human EP1 calcium mobilisation assay; assay type: cell-based; conditions: human EP1, CHO-K1 cells, PGE2-induced calcium mobilisation; averages of a number of experiments; read-out: functional pKi (converted)
Protocol: Briefly, the antagonist properties of compounds are assessed by their ability to inhibit the mobilisation of intracellular calcium ([Ca^2+]i) in response to activation of EP1 or EP3 receptors by the natural agonist hormone prostaglandin E2 (PGE2). Increasing concentrations of antagonist reduce the amount of calcium that a given concentration of PGE2 can mobilise. The net effect is to displace the PGE2 concentration-effect curve to higher concentrations of PGE2. The amount of calcium produced is assessed using a calcium-sensitive fluorescent dye such as Fluo-4, AM and a suitable instrument such as a Fluorimetric Imaging Plate Reader (FLIPR). Increasing amounts of [Ca^2+]i produced by receptor activation increase the amount of fluorescence produced by the dye and give rise to an increasing signal. The signal may be detected using the FLIPR instrument and the data generated may be analysed with suitable curve-fitting software.
The human EP1 or EP3 calcium mobilisation assay (hereafter referred to as ‘the calcium assay’) utilises Chinese hamster ovary-K1 (CHO-K1) cells into which a stable (pCIN; BioTechniques 20 (1996): 102-110) vector containing either EP1 or EP3 cDNA has previously been transfected. Cells are cultured in suitable flasks containing culture medium such as DMEM:F-12 supplemented with 10% v/v foetal calf serum, 2 mM L-glutamine, 0.25 mg/ml geneticin, 100 μM flurbiprofen and 10 μg/ml puromycin.
For assay, cells are harvested using a proprietary reagent that dislodges cells such as Versene. Cells are re-suspended in a suitable quantity of fresh culture media for introduction into a 384-well plate. Following incubation for 24 hours at 37° C. the culture media is replaced with a medium containing Fluo-4 and the detergent pluronic acid, and a further incubation takes place. Concentrations of compounds are then added to the plate in order to construct concentration-effect curves. This may be performed on the FLIPR in order to assess the agonist properties of the compounds. Concentrations of PGE2 are then added to the plate in order to assess the antagonist properties of the compounds.
The data so generated may be analysed by means of a computerised curve-fitting routine. The concentration of compound that elicits a half-maximal inhibition of the calcium mobilisation induced by PGE2 (pIC50) may then be estimated.

Row | SMILES | pIC50 (human EP1 receptor [1]) | Ki (human EP1 receptor [2]) [nM]
1 | CC(C)Cc1cn(-c2nc(NC(=O)C3CCCC3)cs2)c2cc(Cl)ccc12 [Example 3, N-{2-[6-Chloro-3-isobutyl-1H-indol-1-yl]-1,3-thiazol-4-yl}cyclopentanecarboxamide] | ≥ 7.00 | 
2 | CC(C)Cc1cn(-c2nc(NC(=O)C(C)(C)C)cs2)c2cc(Cl)ccc12 [Example 4, N-{2-[6-Chloro-3-isobutyl-1H-indoi-1-yl]-1,3-thiazol-4-yl}-2,2-dimethylpropanamide] | ≥ 7.00 | 
3 | CC(C)Cc1cn(-c2nc(NC(=O)c3c(F)cccc3F)cs2)c2cc(Cl)ccc12 [Example 5, N-[2-(6-Chloro-3-isobutyl-1H-indol-1-yl)-1,3-thiazol-4-yl]-2,6-difluorobenzamide] |  | ≤ 100
4 | CC(C)Cc1cn(-c2nc(C(=O)N3CCCC3)cs2)c2cc(Cl)ccc12 [Example 11, 6-Chloro-3-isobutyl-1-[4-(1-pyrrolidinylcarbonyl)-1,3-thiazol-2-yl]-1H-indole] |  | ≤ 100
5 | CC(C)Cc1cn(-c2nc(C(=O)Nc3ccc(CO)cc3)cs2)c2cc(Br)ccc12 [Example 12, 2-[6-Bromo-3-isobutyl-1H-indol-1-yl]-N-[4-(hydroxymethyl)phenyl]-1,3-thiazole-4-carboxamide] | ≥ 7.00 | ≤ 100
6 | CC(C)c1cn(-c2nc(C(=O)Nc3ccccc3N)cs2)c2cc(Cl)ccc12 [Example 13, N-(2-Aminophenyl)-2-[6-chloro-3-isopropyl-1H-indol-1-yl]-1,3-thiazole-4-carboxamide] | ≥ 7.00 | 
7 | CC(C)Cc1cn(-c2nc(C(=O)Nc3ccccc3CO)cs2)c2cc(Cl)ccc12 [Example 20, 2-[6-Chloro-3-isobutyl-1H-indol-1-yl]-N-[2-(hydroxymethyl)phenyl]-1,3-thiazole-4-carboxamide] | ≥ 7.00 | ≤ 100
8 | CC(C)Cc1cn(-c2nc(C(=O)Nc3ccc(CO)cc3)cs2)c2cc(Cl)ccc12 [Example 21, 2-[6-Chloro-3-isobutyl-1H-indol-1-yl]-N-[4-(hydroxymethyl)phenyl]-1,3-thiazole-4-carboxamide] | ≥ 7.00 | 
9 | CC(C)Cc1cn(-c2nc(C(=O)Nc3cccc(CO)c3)cs2)c2cc(Cl)ccc12 [Example 24, 2-[6-Chloro-3-isobutyl-1H-indol-1-yl]-N-[3-indol-1-yl]N-[3-(hydroxymethyl)phenyl]-1,3-thiazole-4-carboxamide] |  | ≤ 100
10 | CC(C)Cc1cn(-c2nc(C(=O)NCCCO)cs2)c2cc(Cl)ccc12 [Example 26, 2-[6-Chloro-3-isobutyl-1H-indol-1-yl]-N-(3-hydroxypropyl)-1,3-thiazole-4-carboxamide] |  | ≤ 100
11 | CC(C)Cc1cn(-c2nc(C(=O)Nc3ccccn3)cs2)c2cc(Cl)ccc12 [Example 27, 2-[6-Chloro-3-isobutyl-1H-indol-1-yl]-N-2-pyridinyl-1,3-thiazole-4-carboxamide] |  | ≤ 100
12 | CC(C)Cc1cn(-c2nc(C(=O)Nc3ccc(F)cc3)cs2)c2cc(Cl)ccc12 [Example 29, 2-[6-Chloro-3-isobutyl-1H-indol-1-yl]-N-(4-fluorophenyl)-1,3-thiazole-4-carboxamide] |  | ≤ 100
13 | CC(C)Cc1cn(-c2nc(C(N)=O)cs2)c2cc(Cl)ccc12 [Example 30, 2-[6-Chloro-3-isobutyl-1H-indol-1-yl]-1,3-thiazole-4-carboxamide] |  | ≤ 100
14 | CC(C)Cc1cn(-c2nc(C(N)=O)cs2)c2cc(Br)ccc12 [Example 32, 2-[6-Bromo-3-isobutyl-1H-indol-1-yl]-1,3-thiazole-4-carboxamide] |  | ≤ 100
15 | CC(C)Cc1cn(Cc2nc(C(N)=O)cs2)c2cc(Cl)ccc12 [Example 34, 2-{[6-Chloro-3-isobutyl-1H-indol-1-yl]methyl}-1,3-thiazole-4-carboxamide] |  | ≤ 100
16 | CC(C)Cc1cn(-c2nc(-c3nc4ccccc4[nH]3)cs2)c2cc(Cl)ccc12 [Example 35, 2-{2-[6-Chloro-3-isobutyl-1H-indol-1-yl]-1,3-thiazol-4-yl}-1H-benzimidazole hydrochloride] | ≥ 7.00 | ≤ 100
17 | CC(C)(C)CCc1cn(-c2nc(-c3nc4ccccc4[nH]3)cs2)c2cc(Cl)ccc12 [Example 37, 2-{2-[6-Chloro-3-(3,3-dimethylbutyl)-1H-indol-1-yl]-1,3-thiazol-4-yl}-1H-benzimidazole hydrochloride] | ≥ 7.00 | 
18 | CC(C)Cc1cn(-c2nc(-c3nc4ccccc4[nH]3)cs2)c2cc(Br)ccc12 [Example 38, 2-{2-[6-Bromo-3-isobutyl-1H-indol-1-yl]-1,3-thiazol-4-yl}-1H-benzimidazole hydrochloride] | ≥ 7.00 | ≤ 100
19 | CC(C)Cc1nn(-c2nc(-c3nc4ccccc4[nH]3)cs2)c2cc(Cl)ccc12 [Example 39, 1-[4-(1H-Benzimidazol-2-yl)-1,3-thiazol-2-yl]-6-chloro-3-isobutyl-1H-indazole hydrochloride] | ≥ 7.00 | 
20 | CC(C)Cc1cn(Cc2nc(-c3nc4ccccc4[nH]3)cs2)c2cc(Cl)ccc12 [Example 40, 2-(2-{[6-Chloro-3-isobutyl-1H-indol-1-yl]methyl}-1,3-thiazol-4-yl)-1H-benzimidazole hydrochloride] | ≥ 7.00 | ≤ 100
21 | CC(C)Cc1cn(-c2nc(-c3nc4ccccc4[nH]3)cs2)c2cc(C(F)(F)F)ccc12 [Example 41, 2-{2-[3-Isobutyl-6-(trifluoromethyl)-1H-indol-1-yl]-1,3-thiazol-4-yl}-1H-benzimidazole] | ≥ 7.00 | ≤ 100
22 | CC(C)Cc1cn(-c2nc(-c3nc4ncccc4[nH]3)cs2)c2cc(Cl)ccc12 [Example 42, 2-{2-[6-Chloro-3-isobutyl-1H-indol-1-yl]-1,3-thiazol-4-yl}-1H-imidazo[4,5-b]pyridine hydrochloride] | ≥ 7.00 | 
23 | CC(C)Cc1cn(-c2nc(-c3nc4cnccc4[nH]3)cs2)c2cc(Cl)ccc12 [Example 43, 2-{2-[6-Chloro-3-isobutyl-1H-indol-1-yl]-1,3-thiazol-4-yl}-1H-imidazo[4,5-c]pyridine hydrochloride] | ≥ 7.00 | ≤ 100
24 | CC(C)Cc1cn(-c2nc(-c3ncc[nH]3)cs2)c2cc(Cl)ccc12 [Example 47, 6-Chloro-1-[4-(1H-imidazol-2-yl)-1,3-thiazol-2-yl]-3-isobutyl-1H-indole] | ≥ 7.00 | 
25 | CC(C)Cc1cn(-c2nc(-c3nc(-c4ccccc4)c[nH]3)cs2)c2cc(Cl)ccc12 [Example 52, 6-Chloro-3-isobutyl-1-[4-(4-phenyl-1H-imidazol-2-yl)-1,3-thiazol-2-yl]-1H-indole] |  | ≤ 100
